Measured values from patent US10233422B2, “Pluripotent cell lines and methods of use thereof” (Parkinson's Institute, priority 2008, dated 2019).

Tested on: paraquat-treated mouse brain
Test: Ex vivo screening of anti-aggregation compounds: Thioflavin S deposits in paraquat-treated mouse brain
Settings: 250 uM, FIG. 33D-E

## Oc1ccccc1O [Catechol, catechol]
  Thioflavin S deposits (which label aggregate protein): Diminished Thioflavin S deposits
